Non-standard residues stand in square brackets, D forms with d. No end group written: not given here. *: point of attachment. FITC = O=C1OC2(c3ccc(O)cc3Oc3cc(O)ccc32)c2ccc(NC(=S)*)cc21; pY = N[C@@H](Cc1ccc(OP(=O)(O)O)cc1)C(=O)O
Tested on: SLP76: ITK signaling
Experiment: Western blot of signaling proteins in mouse T cells stimulated with anti-CD3 and anti-CD28
Type: cell-based
Experimental: Western blotting: For protein analysis, T cells were either nonstimulated, or stimulated with anti-CD3 and anti-CD28 for 24 hours overnight, and were lysed with freshly prepared lysis buffer (RIPA Buffer (Fisher Scientific cat #PI89900)+cOmplete Protease Inhibitor Cocktail (Sigma-Aldrich; cat #11697498001)) and centrifuged for 10 minutes at 14000 rpm at 4° C. Protein aliquots of 70 μg of protein were loaded on a 12-18% denaturing polyacrylamide gel and transferred to nitrocellulose membranes for immunoblot analysis using antibodies specific to proteins of interest.
To ensure that the peptide easily enters cells and that its cellular localization can be monitored, a C-terminal TAT peptide (GRKKRRQRRRPQ) (SEQ ID NO:3) and an N-terminal fluorescent FITC dye were incorporated, respectively, and named it SLP76pTYR peptide ([…]). SLP76pTYR peptide (FITC Dye ^132NEEEEAPVEDDADpYEPPPSNDEEA^155-TAT) (SEQ ID NO:5) and non-specific control peptide (FITC Dye-[…]-TAT) (SEQ ID NO:6) were synthesized by Genscript Inc (Piscataway, NJ). These peptides were initially dissolved in 3% ammonia water to a final concentration of 10 mg/mL and then further diluted into PBS to a final concentration of 0.1 mg/mL. Fresh splenocytes were isolated from WT mice, and T cells were generated from splenocytes as previously described (Baker et al., 2001). Briefly, T cells were isolated from splenocytes using MACS beads (Miltenyi Biotec), then cultured in complete RPMI media (3×10^6 cells/mL) and plated on anti-CD3 ([…]; Biolegend; cat #100202) and anti-CD28 ([…]; Biolegend; cat #102116) antibody-coated tissue culture plates until otherwise specified. T cells were incubated with SLP76pTYR, control peptide or vehicle alone at different concentrations ranging from 100 ng/ml to 1 mg/ml in the presence of 4 mg/ml of protamine sulfate. […] Within 60 minutes, it was observed that peptides were inside the cells. Cells were cultured for 5 minutes prior to investigating signaling changes. Cells were examined for the presence of FITC by microscopy using a Leica DMi8 microscope equipped with an infinity total internal reflection fluorescence (TIRF) and DIC modules, a Lumencor SOLA SE II light box, a 150 mW 488 (GFP) laser and filter cube, a 100x/1.47 NA objective, and an Andor iXon Life 897 EMCCD camera. FITC expression was confirmed by flow cytometry as well. Cells were lysed and used in Western blots.
ITK deficiency is known to enhance the development of regulatory T cells (Tregs) (Elmore et al., 2020, Owen et al., 2019) so the peptide inhibitor was tested to determine whether inhibition of the ITK: SLP76Y145 interactions using SLP76pTYR would induce Tregs. First, the frequency of Tregs was examined by expression of CD4^+ and FoxP3^+ (FIG. 18A). Next, total mouse T cells were stimulated with anti-CD3 (Sugie et al., 2004) in the presence of either SLP76pTYR, nonspecific peptide, or vehicle alone for 5 to 24 hours, and cells were harvested and examined for the presence of Tregs (CD4^+CD25^+FoxP3^+). […] Next, the effects of SLP76pTYR peptide on human PBMC samples from healthy human patients was investigated. T cells from these patients were stimulated with anti-CD3 (OKT3) (Karimi et al., 2005) for 5 minutes in the presence of SLP76pTYR or vehicle alone. […] No differences in stimulated or unstimulated total human AKT (FIG. 18E and FIG. 28H) was observed, providing a showing that the SLP76pTYR peptide has an impact on signaling pathways downstream of SLP76 in both mouse and human T cells. […] Next, the ability of SLP76pTYR peptide to affect the production of proinflammatory cytokines in human PBMCs was investigated. T cells from healthy human were stimulated with anti-CD3 (OKT3) and anti-CD28 in the presence of SLP76pTYR or vehicle alone, along with Brefeldin A. T cells incubated with SLP76pTYR or vehicle alone were also examined in the presence of PMA+lonomycin and Brefeldin A for 6 hours. […]

[1] = anti-CD3 and anti-CD28 for 5 minutes, vs vehicle alone

FITC Dye ^132NEEEEAPVEDDADpYEPPPSNDEEA^155-TAT ({FITC}-NEEEEAPVEDDAD[pY]EPPPSNDEEAGRKKRRQRRRPQ) [SLP76pTYR]
off-target effects against other kinases (PI3K and AKT, mouse and human T cells (FIG. 28A-H)): minimal off-target effects against other kinases, including PI3K and AKT | ITK phosphorylation, stimulated [1]: reduction in ITK phosphorylation | PLCγ-1 phosphorylation, stimulated [1]: a reduction in stimulated phosphorylation PLCγ-1 was observed | ITK phosphorylation, non-stimulated (non-stimulated cells, vs vehicle alone): A reduction in non-stimulated phosphorylation ITK was not observed | phosphorylation of AKT (stimulated and non-stimulated, also total AKT): No differences in the phosphorylation of PI3K or AKT was observed | phosphorylation of PI3K (stimulated and non-stimulated, also total PI3K): No differences in the phosphorylation of PI3K or AKT was observed | non-stimulated phospho-PLCγ-1 and stimulated or non-stimulated PLCγ-1 (vs vehicle alone): no reduction with non-stimulated phospho-PLCγ-1or either stimulated or non-stimulated PLCγ-1 was observed | total ITK, stimulated or non-stimulated (vs vehicle alone): nor was any reduction for non-stimulated total ITK or stimulated total ITK observed

Reference: patent US12729381B2, “Methods and compositions for inactivating interleukin-2-inducible t-cell kinase (ITK)” (priority 2020, dated 2026)
